From patent US9737493B2, “Compositions and methods for modulating DNMT1 inhibitor activity” (University of Louisville Research Foundation, Inc., priority 2012, dated 2017)

What was measured:
[1] = tested on: A549 non-small cell lung cancer cells; assay: MTT cell proliferation assay; format: cell-based, human; conditions: A549, MTT, in combination with XB05, 72 h
Protocol: (§1) Cell Proliferation Assays. The antiproliferative activity of XB05 was tested using a previously published 3-(4,5-dimethylthiazol-2-yl)-2,5-diphenyltetrazolium bromide (MTT) assay protocol (Girvan et al., “AGRO100 inhibits activation of nuclear factor-kappaB (NF-kappaB) by forming a complex with NF-kappaB essential modulator (NEMO) and nucleolin” Molecular Cancer Therapeutics (2006) Vol. 5, No. 7, pp. 1790-1799). Briefly, cells were seeded in quadruplicate wells in 96-well plates and allowed to adhere overnight. […] Plates were incubated with XB05 for 72 h, during which the cell culture medium was not changed. Cell viability was determined and the background corresponding to medium alone (no cells) was subtracted. Data were analyzed as described in the Brief Description of the Drawings.
(§2) XB05 has Cancer-Selective Antiproliferative Activity. XB05 was tested to determine its antiproliferative activity in a variety of human cell lines that are derived from malignant tissues or from non-malignant (immortalized but not transformed) cells and listed in FIG. 1B. As described in Materials and Methods, cells were treated with varying concentrations of XB05 for 72 h and evaluated using the MTT cell proliferation assay.

[2] = tested on: U937 myeloid leukemia cells; assay: MTT cell proliferation assay; format: cell-based, human; conditions: U937, MTT and flow cytometric assays, in combination with XB05, 72 h
Protocol: as §1, §2

MDA-MB-231 cells = assay: Clonogenic cell survival assay; format: cell-based, human; conditions: MDA-MB-231, NAC and GSH 5 mM, AA 100 μM, 10 days
Protocol: Clonogenic cell survival assays were conducted with MDA-MB-231 cells treated as indicated and grown in culture for 10 days (see Methods). Clonogenic Assays. Cells were plated at low density (300 cells/well) in 6-well tissue culture plates, and allowed to adhere overnight. Where indicated, the medium was then replaced with fresh medium containing antioxidants or vehicle (sterile ultrapure H2O). XB05 or vehicle control (DMSO) was then added directly to the medium at the concentrations indicated. After 10 days, cells were fixed with 4% paraformaldehyde in PBS and stained with Accustain Crystal Violet Solution (Sigma Aldrich) washed and air-dried. Colonies were counted using the cell counter feature in the Image J software, available from the National Institute of Health (<<rsbweb.nih.gov/ij/download.html>>).

A549 cells [3] = format: cell-based; conditions: for effect of antioxidant on XB05-induced cell death: A549, annexin/PI, in combination with XB05, 72 h
Protocol: Some cells were treated with buthionine sulfoximine (BSO, 200 μM) plus diethyl maleate (DEM, 1 mM) for 3 h as a positive control for GSH depletion. Bar graph indicates mean+/−SEM from three independent experiments. […] Membranes were stripped and reprobed for Ku-70 as a loading control.
Flow Cytometric Assays. Analyses were performed using a FACScalibur flow cytometer (BD Biosciences, Mountain View, Calif.) and FlowJo software (Tree Star, Inc., Ashland, Oreg.). Cells were treated as indicated in the figures and in the Brief Description of the Drawings. Cells were harvested by using TrypLE Cell Dissociation Reagent (Life Technologies). For cell death analyses, cells (adherent and detached cells) were stained with annexin-V-FITC and propidium iodide (PI) using the Apoptosis Detection Kit (BD Biosciences, San Jose, Calif.), according to the manufacturer's instructions. For cell-cycle distribution, cells were fixed, and stained with PI using the Cycle Test Plus kit (Becton Dickinson, Franklin Lakes, N.J.). For detection of γ-H2AX, cells were washed with PBS and fixed in 4% paraformaldehyde in PBS for 10 min at 37° C. […] After washing with PBS, cells were re-suspended in PBS containing 1 μg/mL PI to allow exclusion of non-viable cells. For detection of mitochondrial superoxide, cells were harvested, washed with PBS and stained with 5 μM MitoSOX™ Red (Life Technologies) in warm PBS for 10 min at 37° C. Cells were then washed twice with PBS, re-suspended at a density of 1×10^6 cells/mL in PBS and analyzed by flow cytometry.

A549 cells [4] = conditions: A549, in combination with XB05, 10 days
Protocol: (C) Clonogenic cell survival assays were conducted in A549 cells treated as indicated and grown in culture for 10 days (see Methods). Bar graph indicates mean values (+/−SEM) for colony growth inhibition from 3 independent experiments. […] Clonogenic Assays. Cells were plated at low density (300 cells/well) in 6-well tissue culture plates, and allowed to adhere overnight. Where indicated, the medium was then replaced with fresh medium containing antioxidants or vehicle (sterile ultrapure H2O). XB05 or vehicle control (DMSO) was then added directly to the medium at the concentrations indicated. After 10 days, cells were fixed with 4% paraformaldehyde in PBS and stained with Accustain Crystal Violet Solution (Sigma Aldrich) washed and air-dried. Colonies were counted using the cell counter feature in the Image J software, available from the National Institute of Health (<<rsbweb.nih.gov/ij/download.html>>).

U937 cells [5] = assay: Clonogenic cell survival assay; format: cell-based, human; conditions: U937, 100 μM BHA, data not shown
U937 cells [6] = assay: Annexin/PI flow cytometric cell death analysis; format: cell-based, human; conditions: U937, 50 and 100 μM BSO, 1 μM XB05, 72 h
Protocol: Data shown are representative of three independent experiments. (B) The cell lines indicated were treated with DMSO vehicle or XB05 (1 μM for U937 and Hs27, or 2 μM for A549) for the timepoints indicated. (C) The cell lines indicated were treated with DMSO vehicle, XB05 (1 μM for U937 and Hs27, or 2 μM for A549) or Thapsigargin positive control (2 μM) for 24 h. Densitometry was performed to quantify western blot band intensities for phospho-eIF2α (ser51), total eIF2α and BiP (representative blot shown in FIG. 8D). All values were normalized to DMSO vehicle control. Bar graphs indicate the average band intensity for three independent experiments, +/−the standard error of the mean. Statistical significance for XB05 compared to vehicle is indicated (*p≦0.05 and **p≦0.01).
Flow Cytometric Assays. Analyses were performed using a FACScalibur flow cytometer (BD Biosciences, Mountain View, Calif.) and FlowJo software (Tree Star, Inc., Ashland, Oreg.). Cells were treated as indicated in the figures and in the Brief Description of the Drawings. Cells were harvested by using TrypLE Cell Dissociation Reagent (Life Technologies). […] Cells were then washed twice with PBS, re-suspended at a density of 1×10^6 cells/mL in PBS and analyzed by flow cytometry.

Colo-205 xenografts = Colo-205 xenografts in nude mice; format: in vivo; conditions: 25 mg/kg daily for 21 days, i.v.

Compound	effect of antioxidant on antiproliferative effects of XB05 [1]	protection from antiproliferative and cytotoxic effects of XB05 [2]	protection from cytotoxic effects of XB05 (MDA-MB-231 cells)	effect of antioxidant on XB05-induced cell death (A549 cells [3])	effect of antioxidant on XB05 effect on clonogenic survival (A549 cells [4])	also measured
O=C1O[C@H]([C@@H](O)CO)C(O)=C1O [AA, L-ascorbic acid]	no effect	not	not	slightly enhanced the pro-apoptotic activity of XB05	no protective effect	–
COc1ccc(O)c(C(C)(C)C)c1 [BHA, butylated hydroxyanisole]	–	–	–	–	–	protection from XB05 activity (U937 cells [5]): no protective effect
CCCCS(=N)(=O)CCC(N)C(=O)O (centres unmarked) [BSO, buthionine sulfoximine]	–	–	–	–	–	cytotoxicity of BSO plus XB05 compared to XB05 alone (A549 cells [3]; A549, 50 and 100 μM BSO, 2 μM XB05, 72 h): enhanced cytotoxicity compared to XB05 treatment alone; cytotoxicity of BSO plus XB05 compared to XB05 alone (U937 cells [6]): enhanced cytotoxicity compared to XB05 treatment alone
N[C@@H](CCC(=O)N[C@@H](CS)C(=O)NCC(=O)O)C(=O)O [GSH, reduced glutathione]	diminish the antiproliferative effects of XB05	protect these cells from the antiproliferative and cytotoxic effects of XB05	protect these cells from the cytotoxic effects of XB05	protected cells from XB05-induced apoptosis and nonapoptotic cell death	abrogated the effect of XB05 on clonogenic survival	–
CC/C=C\CCC(O)C#CC(F)(F)Br (centres unmarked) [LD-01-072]	–	–	–	–	–	in vivo antitumor efficacy (Colo-205 xenografts): in vivo antitumor efficacy; non-specific toxicity judged by body weight (Colo-205 xenografts): no evidence of any severe non-specific toxicities
CC(=O)N[C@@H](CS)C(=O)O [NAC, N-acetyl cysteine]	diminish the antiproliferative effects of XB05	protect these cells from the antiproliferative and cytotoxic effects of XB05	protect these cells from the cytotoxic effects of XB05	protected cells from XB05-induced apoptosis and nonapoptotic cell death	abrogated the effect of XB05 on clonogenic survival	–
